This passage reports IC50 results from patent publication US8143403B2 (Bristol-Myers Squibb Company, priority 2008, dated 2012).

This assay deals with T1, Human CGRP Receptor (Homo sapiens, UniProt O60894+Q16602).
T1 construct: Crude membranes were prepared from SK-N-MC cells expressing CGRP receptors; endogenous in cells; host or cells: SK-N-MC cells (crude membranes)
T1 sequence (Q16602 23-461): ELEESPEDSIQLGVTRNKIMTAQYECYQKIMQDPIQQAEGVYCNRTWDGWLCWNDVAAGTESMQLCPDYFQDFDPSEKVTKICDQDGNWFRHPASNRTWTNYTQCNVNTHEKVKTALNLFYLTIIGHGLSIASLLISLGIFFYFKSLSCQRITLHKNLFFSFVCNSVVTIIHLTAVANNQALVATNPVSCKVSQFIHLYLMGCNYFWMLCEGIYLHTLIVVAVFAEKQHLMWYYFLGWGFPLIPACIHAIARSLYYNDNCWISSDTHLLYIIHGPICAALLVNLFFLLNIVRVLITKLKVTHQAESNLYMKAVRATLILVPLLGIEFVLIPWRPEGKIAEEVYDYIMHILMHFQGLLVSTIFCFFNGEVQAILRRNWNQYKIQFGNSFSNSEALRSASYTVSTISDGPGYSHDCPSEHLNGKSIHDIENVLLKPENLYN
T1 sequence (O60894 27-148): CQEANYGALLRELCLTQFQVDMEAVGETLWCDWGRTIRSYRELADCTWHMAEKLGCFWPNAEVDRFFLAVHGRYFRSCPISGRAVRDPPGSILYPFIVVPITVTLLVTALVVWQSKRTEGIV
In words: Radioligand binding assay, [125I]-CGRP displacement on SK-N-MC membranes. The conditions noted are these: displacement of [125I]-CGRP (18 pM final), 2 h room temperature. As to the method:
Tissue Culture. SK-N-MC cells were grown at 37° C. in 5% CO2 as a monolayer in medium consisting of MEM with Earle's salts and L-glutamine (Invitrogen) supplemented with 10% fetal bovine serum (Invitrogen).
Membrane Preparation. Crude membranes were prepared from SK-N-MC cells expressing CGRP receptors. The cells were rinsed twice with phosphate-buffered saline (155 mM NaCl, 3.3 mM Na2HPO4, 1.1 mM KH2PO4, pH 7.4), and incubated for 5-10 min. at 4° C. in hypotonic lysis buffer consisting of 10 mM Tris (pH 7.4) and 5 mM EDTA. The cells were transferred from plates to polypropylene tubes (16×100 mm) and homogenized using a polytron. Homogenates were centrifuged at 32,000×g for 30 min. The pellets were resuspended in cold hypotonic lysis buffer with 0.1% mammalian protease inhibitor cocktail (Sigma) and assayed for protein concentration. The SK-N-MC homogenate was aliquoted and stored at −80° C. Radioligand Binding Assay. The compounds of invention were solubilized and carried through serial dilutions using 100% DMSO. Aliquots from the compound serial dilutions were further diluted 25 fold into assay buffer (50 mM Tris-Cl pH 7.5, 5 mM MgCl2, 0.005% Triton X-100) and transferred (volume 50 μl) into 96 well assay plates. [^125I]-CGRP (GE Healthcare or Perkin-Elmer) was diluted to 72 pM in assay buffer and a volume of 50 μl was added to each well. SK-N-MC membranes were thawed, diluted in assay buffer with fresh 0.1% mammalian protease inhibitor cocktail (Sigma), and re-homogenized. SK-N-MC homogenate (7 μg/well) was added in a volume of 100 μl. The assay plates were then incubated at room temperature for 2 h. Assays were stopped by addition of excess cold wash buffer (50 mM Tris-Cl pH 7.5, 0.1% BSA) immediately followed by filtration over glass fiber filters (Whatman GF/B) previously soaked in 0.5% PEI. Non-specific binding was defined with 1 μM beta-CGRP (Bachem). Protein bound radioactivity was determined using a gamma or scintillation counter. The resulting data was analyzed using a four parameter competitive binding equation (XLfit v2.0) and the IC50 was defined as the concentration of a compound of invention required to displace 50% of radioligand binding. Final assay concentration of [^125I]-CGRP was 18 pM. […] All compounds of invention were evaluated in at least two separate experiments.
(In general: Loss of bound radioactivity is the signal in a displacement assay; it reports binding, not function.)
In general, IC50 refers to the concentration needed to halve the response being measured. A higher IC50 goes with weaker potency. In turn, `CC(C)(C)Nc1ccc2c(n1)[C@H](OC(=O)N1CCC(n3c(=O)[nH]c4ncccc43)CC1)CC[C@@H](c1cccc(F)c1F)C2` [Example 16, (6R,9R)-2-(tert-Butylamino)-6-(2,3-difluorophenyl)-6,7,8,9-tetrahydro-5H-cyclohepta[b]pyridin-9-yl 4-(2-oxo-2,3-dihydro-1H-imidazo[4,5-b]pyridin-1-yl)piperidine-1-carboxylate] showed an IC50 of 6.96 nM.

The molecule `O=C(O[C@@H]1CC[C@@H](c2cccc(F)c2F)Cc2cccnc21)N1CCC(N2CCc3ccccc3NC2=O)CC1` (relative stereo) [Example 3, (6,9-anti)-6-(2,3-difluorophenyl)-6,7,8,9-tetrahydro-5H-cyclohepta[b]pyridin-9-yl 4-(2-oxo-4,5-dihydro-1H-benzo[d][1,3]diazepin-3(2H)-yl)piperidine-1-carboxylate] registered an IC50 of 1.25 nM.

With `Nc1cnc2c(c1)C[C@H](c1cccc(F)c1F)CC[C@H]2NC(=O)N1CCC(n2c(=O)[nH]c3ncccc32)CC1` [Example 14, N-((6R,9R)-3-amino-6-(2,3-difluorophenyl)-6,7,8,9-tetrahydro-5H-cyclohepta[b]pyridin-9-yl)-4-(2-oxo-2,3-dihydro-1H-imidazo[4,5-b]pyridin-1-yl)piperidine-1-carboxamide], the IC50 turned out to be 0.25 nM.

In turn, `Nc1ccc2c(n1)[C@H](OC(=O)N1CCC(n3c(=O)[nH]c4ncccc43)CC1)CC[C@@H](c1cccc(F)c1F)C2` [Example 17, (6R,9R)-2-Amino-6-(2,3-difluorophenyl)-6,7,8,9-tetrahydro-5H-cyclohepta[b]pyridin-9-yl 4-(2-oxo-2,3-dihydro-1H-imidazo[4,5-b]pyridin-1-yl)piperidine-1-carboxylate] showed an IC50 of 0.8 nM.

Regarding `O=C(C[C@@H]1CC[C@@H](c2cccc(F)c2F)Cc2cccnc21)N1CCC(n2c(=O)[nH]c3ncccc32)CC1` (single isomer, unassigned) [Example 6], the IC50 amounted to 0.89 nM.

The molecule `O=C(O[C@@H]1CC[C@@H](c2ccc(F)c(F)c2)Cc2cccnc21)N1CCC(n2c(=O)[nH]c3ncccc32)CC1` (relative stereo) [Example 12, (6,9-Trans)-6-(3,4-Difluorophenyl)-6,7,8,9-tetrahydro-5H-cyclohepta[b]pyridin-9-yl 4-(2-oxo-2,3-dihydro-1H-imidazo[4,5-b]pyridin-1-yl)piperidine-1-carboxylate] had an IC50 of 7.41 nM.

The molecule `O=C(O[C@@H]1CC[C@@H](c2cccc(F)c2F)Cc2cccnc21)N1CCC(n2c(=O)[nH]c3ncccc32)CC1` (relative stereo) [Example 2] had an IC50 of 0.23 nM.

In turn, `O=C(O[C@@H]1CC[C@@H](c2cccc(F)c2F)Cc2cccnc21)N1CCC(n2c(=O)[nH]c3ncccc32)CC1` [Example 21] returned an IC50 of 0.12 nM.

With `O=C(O[C@@H]1CC[C@@H](c2cccc(F)c2F)Cc2ccc(Cl)nc21)N1CCC(n2c(=O)[nH]c3ncccc32)CC1` [Example 19, (6R,9R)-2-Chloro-6-(2,3-difluorophenyl)-6,7,8,9-tetrahydro-5H-cyclohepta[b]pyridin-9-yl 4-(2-oxo-2,3-dihydro-1H-imidazo[4,5-b]pyridin-1-yl)piperidine-1-carboxylate], the IC50 is 0.76 nM.

Molecule `O=C(C[C@@H]1CC[C@H](c2cccc(F)c2F)Cc2cccnc21)N1CCC(n2c(=O)[nH]c3ncccc32)CC1` (relative stereo) [Example 5, 1-(1-(2-((6,9-Cis)-6-(2,3-difluorophenyl)-6,7,8,9-tetrahydro-5H-cyclohepta[b]pyridin-9-yl)acetyl)piperidin-4-yl)-1H-imidazo[4,5-b]pyridin-2(3H)-one] came in with an IC50 of 4.04 nM.

Turning to `O=C(O[C@@H]1CC[C@@H](c2cc(F)ccc2F)Cc2cccnc21)N1CCC(n2c(=O)[nH]c3ncccc32)CC1` (racemic) [Example 11, (6,9-trans)-6-(2,5-Difluorophenyl)-6,7,8,9-tetrahydro-5H-cyclohepta[b]pyridin-9-yl 4-(2-oxo-2,3-dihydro-1H-imidazo[4,5-b]pyridin-1-yl)piperidine-1-carboxylate], the IC50 came out at 4.14 nM.

Take `O=C(N[C@@H]1CC[C@@H](c2cccc(F)c2F)Cc2cccnc21)N1CCC(n2c(=O)[nH]c3ncccc32)CC1` (single isomer, unassigned) [Example 8]: the IC50 came out at 1.6 nM.

`N#Cc1ccc2c(n1)[C@H](OC(=O)N1CCC(n3c(=O)[nH]c4ncccc43)CC1)CC[C@@H](c1cccc(F)c1F)C2` (relative stereo) [Example 4, (6,9-trans)-2-cyano-6-(2,3-difluorophenyl)-6,7,8,9-tetrahydro-5H-cyclohepta[b]pyridin-9-yl 4-(2-oxo-2,3-dihydro-1H-imidazo[4,5-b]pyridin-1-yl)piperidine-1-carboxylate]: the IC50 was determined as 0.44 nM.

For the molecule `O=C(N[C@H]1CC[C@H](c2cccc(F)c2F)Cc2cccnc21)N1CCC(n2c(=O)[nH]c3ncccc32)CC1` [Example 9, N-((6S,9S)-6-(2,3-difluorophenyl)-6,7,8,9-tetrahydro-5H-cyclohepta[b]pyridin-9-yl)-4-(2-oxo-2,3-dihydro-1H-imidazo[4,5-b]pyridin-1-yl)piperidine-1-carboxamide], the IC50 was over 1000 nM.

Molecule `O=C1CCC(c2cccc(F)c2F)CCC1OC(=O)N1CCC(n2c(=O)[nH]c3ncccc32)CC1` (centres unmarked) [Example 1, 5-(2,3-difluorophenyl)-2-oxocycloheptyl 4-(2-oxo-2,3-dihydro-1H-imidazo[4,5-b]pyridin-1-yl)piperidine-1-carboxylate] came in with an IC50 of 2.86 nM.

Molecule `CN(C)c1ccc2c(n1)[C@H](OC(=O)N1CCC(n3c(=O)[nH]c4ncccc43)CC1)CC[C@@H](c1cccc(F)c1F)C2` [Example 18, (6R,9R)-6-(2,3-difluorophenyl)-2-(dimethylamino)-6,7,8,9-tetrahydro-5H-cyclohepta[b]pyridin-9-yl 4-(2-oxo-2,3-dihydro-1H-imidazo[4,5-b]pyridin-1-yl)piperidine-1-carboxylate] returned a 50% inhibitory concentration (IC50) of 0.78 nM.

The molecule “(6,9-Trans)-6-(2,3-difluorophenyl)-6,7,8,9-tetrahydro-5H-cyclohepta[b]pyridin-9-yl 2-oxo-1,2-dihydrospiro[benzo[d][1,3]oxazine-4,4′-piperidine]-1′-carboxylate [Example 13]” had an IC50 of 1.55 nM.

For `CN(C)c1cnc2c(c1)C[C@H](c1cccc(F)c1F)CC[C@H]2OC(=O)N1CCC(n2c(=O)[nH]c3ncccc32)CC1` [Example 15, (6R,9R)-6-(2,3-difluorophenyl)-3-(dimethylamino)-6,7,8,9-tetrahydro-5H-cyclohepta[b]pyridin-9-yl 4-(2-oxo-2,3-dihydro-1H-imidazo[4,5-b]pyridin-1-yl)piperidine-1-carboxylate], the IC50 stood at 0.98 nM.

`O=C(C[C@H]1CC[C@H](c2cccc(F)c2F)Cc2cccnc21)N1CCC(n2c(=O)[nH]c3ncccc32)CC1` (single isomer, unassigned) [Example 7] registered a half-maximal inhibitory concentration (IC50) of over 100 nM.

`O=C(O[C@@H]1CC[C@@H](c2ccccc2)Cc2cccnc21)N1CCC(n2c(=O)[nH]c3ncccc32)CC1` (relative stereo) [Example 10, (6,9-Trans)-6-Phenyl-6,7,8,9-tetrahydro-5H-cyclohepta[b]pyridin-9-yl 4-(2-oxo-2,3-dihydro-1H-imidazo[4,5-b]pyridin-1-yl)piperidine-1-carboxylate] came in with a concentration for half-maximal inhibition (IC50) of 8.89 nM.
